Laboratory results: PMC7329366 (Molecular nutrition & food research, 2020)
Read-outs that look alike come from different tables or passages of the source.

Tests used:
[1] = Plasma pharmacokinetics after a single oral RK dose, normal-weight; assay type: in vivo, C57BL/6J mice; settings: for AUC(0-t): AUC (0–12 h); for half-life: T1/2 (elimination half-life)
[2] = assay type: in vivo, C57BL/6J mice; settings: single oral RK 200 mg kg^−1; for half-life: T1/2 (elimination half-life)
[3] = Distribution in white adipose tissue; assay type: in vivo, C57BL/6J mice; settings: epididymal WAT; for time within which considerable accumulation in WAT was observed: male mice, oral RK 200 mg kg^−1; for increase in WAT level in obese animals compared with normal-weight: between 15 and 30 min
[4] = Plasma pharmacokinetics after a single oral RK dose, male vs female mice; assay type: in vivo, C57BL/6J mice
[5] = assay type: in vivo, C57BL/6J mice; settings: for Cmax: mean±SEM; for presence in the brain: brain of either sexes after oral RK
[6] = assay type: in vivo; settings: in 24 h, normal-weight male mice, preliminary dosing tests
[7] = male, C57BL/6J, mouse, plasma, po, 200 mg/kg, Pl-N: plasma, normal-weight male mice, single oral RK 200 mg kg^−1
[8] = male, C57BL/6J, mouse, plasma, po, 200 mg/kg, Pl-O: plasma, obese male mice, single oral RK 200 mg kg^−1
[9] = male, C57BL/6J, mouse, plasma, po, 200 mg/kg, Tmax, Pl-N: plasma, normal-weight male mice, single oral RK 200 mg kg^−1
[10] = Br-N: brain, normal-weight male mice
[11] = male, C57BL/6J, mouse, brain, po, 200 mg/kg, Br-N: brain, normal-weight male mice
[12] = male, C57BL/6J, mouse, brain, po, 200 mg/kg, Tmax, Br-N: brain, normal-weight male mice
[13] = female, C57BL/6J, mouse, plasma, po, 200 mg/kg
[14] = male, C57BL/6J, mouse, plasma, po, 200 mg/kg
[15] = Br-F: brain, female LFD mice, single oral RK 200 mg kg^−1
[16] = Br-M: brain, male LFD mice, single oral RK 200 mg kg^−1
[17] = female, C57BL/6J, mouse, brain, po, 200 mg/kg
[18] = male, C57BL/6J, mouse, brain, po, 200 mg/kg
[19] = male, C57BL/6J, mouse, brain, po, 200 mg/kg, Br-O: brain, obese male mice
[20] = Pl-N: plasma, normal-weight male mice, single oral RK 200 mg kg^−1
[21] = Pl-O: plasma, obese male mice, single oral RK 200 mg kg^−1
[22] = Pl-F: plasma, female LFD mice, single oral RK 200 mg kg^−1
[23] = Pl-M: plasma, male LFD mice, single oral RK 200 mg kg^−1

Row | SMILES | AUC(0-t) [1, 7] [µM·h] | half-life [1, 7] [min] | half-life [1, 8] [min] | Tmax [1, 9] [min] | Cmax [2, 10] [nmol/g] | half-life [2, 11] [min] | Tmax [2, 12] [min] | time within which considerable accumulation in WAT was observed [3] [min] | Cmax [4, 13] [µM] | Tmax [4, 13] [min] | AUC(0-t) [4, 14] [µM·h] | Tmax [4, 14] [min] | half-life [4, 14] [min] | Cmax [5, 15] [nmol/g] | Cmax [5, 16] [nmol/g] | half-life [5, 17] [min] | Tmax [5, 18] [min] | half-life [5, 18] [min] | Cmax ([2]; Br-O: brain, obese male mice) [nmol/g] | Tmax [5, 17] [min] | further results
1 | COc1cc(CCC(C)=O)ccc1O [VLAce, vanillylacetone] | 61.2 ± 4.7 | 40.9 ± 4.8 | 68.8 ± 17.3 | 25 | 2.07 ± 0.24 | 44.4 ± 2.18 | 40 | ≤ 15 | 9.94 ± 2.4 | 15 | 31 ± 3.65 | 25 | 46.4 ± 2.1 | 1.49 ± 0.30 | 1.51 ± 0.15 | 89.2 ± 10 | 15 | 84.1 ± 3.55 | – | – | –
2 | CC(=O)CCc1ccc(O)cc1 [RK, 4-(4-hydroxyphenyl)-2-butanone] | 387 ± 25.6 | 73.3 ± 1.2 | 94.7 ± 7.8 | 15 | 32.7 ± 4.34 | 39.5 ± 1.9 | 20 | ≤ 15 | 281 ± 17.1 | 15 | 358 ± 34 | 15 | 78.4 ± 3.55 | 37.4 ± 8.73 | 28.9 ± 2.42 | 28.3 ± 1.65 | 15 | 25.7 ± 2 | 46.7 ± 6.2 | 15 | maximal circulating concentration ([1]; plasma, normal-weight mice): 236 nM; maximal circulating concentration ([1]; plasma, obese mice): 318 nM; twelve-hour plasma accumulation in obese animals as % of normal-weight ones ([1]; plasma, obese vs normal-weight): 152.2–197.6%; half-life [2, 19]: 41.5 ± 4 min; increase in WAT level in obese animals compared with normal-weight [3]: 30–90%; higher residual content in WAT of obese mice ([3]; between 30 min and 2 h, obese vs normal-weight): > 100%; Tmax ([4]; both, C57BL/6J, mouse, plasma, po, 200 mg/kg): ~15 min; AUC(0-t) [4, 13]: 299 ± 20.2 µM·h; time of absorption and tissue accumulation ([4]; oral RK 200 mg kg^−1, this study): < 30 min; clearance from the bloodstream [6]: > 99%
3 | CC(=O)C=Cc1ccccc1 [benzylideneacetone] | – | – | – | – | – | – | – | – | – | – | – | – | – | – | – | – | – | – | – | – | presence in the brain [5]: not found
4 | OCCc1ccc(O)c(O)c1 [3,4-DHPE, 2-(3,4-dihydroxyphenyl)ethanol] | 0.08 ± 0.006 | 48.9 ± 6.9 | 51.7 ± 4.36 | 20 | 0.031 ± 0.003 | 35.5 ± 3.94 | 20 | – | 0.024 ± 0.002 | 15 | 0.057 ± 0.006 | 20 | 41.8 ± 1.25 | 0.020 ± 0.006 | 0.021 ± 0.003 | 20.3 ± 1.41 | 15 | 21 ± 0.16 | 0.025 ± 0.002 | 15 | half-life [4, 13]: 63.6 ± 6.84 min
5 | CC(=O)C=Cc1ccc(O)c(O)c1 [DHPhLiAce, 3,4-dihydroxybenzylideneacetone] | 1.04 ± 0.16 | 41.6 ± 3 | 48 ± 2.1 | 30 | 0.23 ± 0.012 | 36.2 ± 1.6 | 30 | ≤ 15 | – | 15 | 0.465 ± 0.046 | 40 | 41.4 ± 2.91 | 0.112 ± 0.042 | 0.067 ± 0.011 | 35.8 ± 2.29 | 20 | 33.4 ± 0.73 | – | 25 | AUC(0-t) [1, 8]: 1.38 ± 0.04 µM·h; half-life [2, 19]: 37.2 ± 0.22 min; half-life [4, 13]: 30 ± 4.24 min
6 | O=C(O)CCc1cccc(O)c1 [3-(3-hydroxyphenyl)propionic acid] | – | – | – | – | – | – | – | – | – | – | – | – | – | – | – | – | – | – | – | – | presence in the brain [5]: not found
7 | CC(O)CCc1ccc(O)cc1 (stereo not drawn) [ROH, raspberry alcohol] | – | – | – | – | 55.1 ± 8.12 | – | – | ≤ 15 | – | – | – | – | – | 21.6 ± 4.72 | 21.0 ± 2.68 | – | – | – | 60.3 ± 6.6 | – | AUC (0–12 h) [1, 20]: 208 ± 22.0 nmol/mL/min; T1/2 (elimination half-life) [1, 20]: 66.1 ± 1.7 min; Tmax [1, 20]: 25.0 ± 5.0 min; T1/2 (elimination half-life) [1, 21]: 70.0 ± 1.5 min; Tmax [1, 21]: 50.0 ± 10.0 min; T1/2 (elimination half-life) [2, 10]: 33.7 ± 2.2 min; Tmax [2, 10]: 20.0 ± 5.0 min; Tmax ([2]; Br-O: brain, obese male mice): 40.0 ± 10.0 min; increase in WAT level in obese animals compared with normal-weight [3]: 30–90%; AUC (0–12 h) [4, 22]: 158 ± 17.1 nmol/mL/min; Tmax [4, 22]: 25.0 ± 4.99 min; Cmax ([4]; Pl-F: plasma, female LFD mice, single oral RK 200 mg kg^−1, mean±SEM): 130 ± 12.7 µM; AUC (0–12 h) [4, 23]: 177 ± 11.8 nmol/mL/min; T1/2 (elimination half-life) [4, 23]: 63.2 ± 2.61 min; Tmax [4, 23]: 25.0 ± 4.99 min; T1/2 (elimination half-life) [5, 16]: 32.0 ± 0.77 min; Tmax [5, 16]: 20.0 ± 5.0 min
8 | COc1cc(/C=C/C(=O)O)ccc1O [ferulic acid] | – | – | – | – | – | – | – | – | – | – | – | – | – | – | – | – | – | – | – | – | presence in the brain [5]: not found
9 | OCCc1ccc(O)cc1 [4-HPE, 2-(4-hydroxyphenyl)ethanol] | 20.7 ± 2.92 | 73 ± 4.7 | 56.3 ± 8.8 | 20 | 6.14 ± 0.49 | 31.5 ± 4.38 | 25 | ≤ 15 | 43.6 ± 2.9 | 40 | 108 ± 10.9 | 50 | 104 ± 2.1 | 1.28 ± 0.08 | 1.03 ± 0.14 | – | 15 | 64.7 ± 7.78 | 7.92 ± 1.60 | 20 | AUC(0-t) [1, 8]: 28.7 ± 3.65 µM·h; half-life [2, 19]: 38.8 ± 2.56 min; AUC(0-t) [4, 13]: 98.7 ± 7.38 µM·h
10 | COc1ccc(CCC(C)=O)cc1 [RK-Me, 4-(4-methoxy-phenyl)-2-butanone] | 0.039 ± 0.008 | 31 ± 5.6 | 41.7 ± 1.2 | 20 | – | – | – | ≤ 15 | 0.086 ± 0.022 | 25 | 0.05 ± 0.005 | 20 | 26.7 ± 2.81 | – | – | – | – | – | – | – | AUC(0-t) [1, 8]: 0.047 ± 0.007 µM·h; AUC(0-t) [4, 13]: 0.069 ± 0.01 µM·h; half-life [4, 13]: 31.4 ± 1.84 min; presence in the brain [5]: not found
